What all share (type): biochemical
For one experiment, the target named is PDE1B1 (Homo sapiens, UniProt Q01064). Nature of the experiment: In vitro PDE selectivity assay (SPA), PDE1B1. As to conditions: hPDE1B1; read-out: PDE 1B1 (expressed as pIC50) (converted).
Experiment [1] concerns the target other members of the PDE family (Homo sapiens, UniProt P16499+P35913). Description: In vitro PDE selectivity assay (SPA), other members of the PDE family (protocols in Table A). The following applies: hPDE6AB; read-out: PDE 6AB (expressed as pIC50) (converted). In outline:
(§1)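 Inhibition of each PDE isoform was measured by scintillation proximity assay with ³H-cyclic nucleotide substrate, using incubation buffer, substrate concentration, incubation time and stop solution adapted per isoform. Compounds were tested in dose-response against 1% DMSO controls and enzyme-free blanks. IC50 came from a least-squares fit of blank-subtracted % of control versus concentration.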

The target in experiment [2] is other members of the PDE family (Homo sapiens, UniProt O60658). The experiment is described as above. The following applies: hPDE8A1; read-out: PDE 8A1 (expressed as pIC50) (converted). A digest of the protocol:
as §1

Chain of other members of the PDE family (Homo sapiens, UniProt O60658) (O60658 whole entry): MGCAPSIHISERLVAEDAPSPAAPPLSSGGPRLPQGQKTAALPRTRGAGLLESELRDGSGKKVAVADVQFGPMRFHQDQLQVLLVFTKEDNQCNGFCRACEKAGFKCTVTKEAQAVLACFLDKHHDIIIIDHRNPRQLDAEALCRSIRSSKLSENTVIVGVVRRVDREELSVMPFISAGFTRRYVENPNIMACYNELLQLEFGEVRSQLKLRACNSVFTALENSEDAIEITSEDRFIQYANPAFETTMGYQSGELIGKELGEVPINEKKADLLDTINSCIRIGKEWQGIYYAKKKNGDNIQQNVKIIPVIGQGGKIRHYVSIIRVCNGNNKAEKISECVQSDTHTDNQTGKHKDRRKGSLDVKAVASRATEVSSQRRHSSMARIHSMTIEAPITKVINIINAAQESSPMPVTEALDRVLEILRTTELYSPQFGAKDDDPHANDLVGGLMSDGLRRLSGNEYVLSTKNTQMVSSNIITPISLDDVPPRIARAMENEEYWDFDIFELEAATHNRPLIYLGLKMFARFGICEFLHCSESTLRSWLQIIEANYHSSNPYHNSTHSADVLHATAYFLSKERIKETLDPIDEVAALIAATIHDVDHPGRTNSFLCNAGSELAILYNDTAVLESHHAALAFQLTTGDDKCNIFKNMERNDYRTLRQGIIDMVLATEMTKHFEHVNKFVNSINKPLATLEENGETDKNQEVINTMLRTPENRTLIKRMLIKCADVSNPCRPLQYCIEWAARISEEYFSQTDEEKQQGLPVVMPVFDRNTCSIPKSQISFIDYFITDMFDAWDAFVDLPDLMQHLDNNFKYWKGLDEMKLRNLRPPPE
Chain of other members of the PDE family (Homo sapiens, UniProt P16499+P35913) (P16499 whole entry, canonical isoform): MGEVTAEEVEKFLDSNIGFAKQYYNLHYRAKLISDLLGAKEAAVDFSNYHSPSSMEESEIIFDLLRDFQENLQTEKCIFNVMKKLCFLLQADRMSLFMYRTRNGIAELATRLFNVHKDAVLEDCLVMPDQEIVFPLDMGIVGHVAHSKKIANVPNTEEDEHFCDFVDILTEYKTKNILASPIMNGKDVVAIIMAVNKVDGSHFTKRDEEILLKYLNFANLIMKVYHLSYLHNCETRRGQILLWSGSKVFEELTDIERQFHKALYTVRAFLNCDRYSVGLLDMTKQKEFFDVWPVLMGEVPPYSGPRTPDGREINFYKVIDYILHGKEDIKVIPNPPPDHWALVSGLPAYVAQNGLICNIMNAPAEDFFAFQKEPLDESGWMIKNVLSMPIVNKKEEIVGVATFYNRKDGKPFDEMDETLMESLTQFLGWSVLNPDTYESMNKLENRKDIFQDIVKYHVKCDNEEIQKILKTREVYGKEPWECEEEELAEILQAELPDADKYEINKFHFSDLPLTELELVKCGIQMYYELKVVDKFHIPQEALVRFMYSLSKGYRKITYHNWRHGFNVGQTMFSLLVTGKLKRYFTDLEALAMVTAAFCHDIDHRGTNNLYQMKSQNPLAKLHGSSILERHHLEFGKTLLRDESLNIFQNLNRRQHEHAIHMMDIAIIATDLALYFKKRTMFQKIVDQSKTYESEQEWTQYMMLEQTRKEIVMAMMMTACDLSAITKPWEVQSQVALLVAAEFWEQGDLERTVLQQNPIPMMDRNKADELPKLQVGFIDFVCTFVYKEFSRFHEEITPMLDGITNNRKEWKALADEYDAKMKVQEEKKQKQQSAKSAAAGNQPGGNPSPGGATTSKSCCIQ
Chain of other members of the PDE family (Homo sapiens, UniProt P16499+P35913) (P35913 whole entry, canonical isoform): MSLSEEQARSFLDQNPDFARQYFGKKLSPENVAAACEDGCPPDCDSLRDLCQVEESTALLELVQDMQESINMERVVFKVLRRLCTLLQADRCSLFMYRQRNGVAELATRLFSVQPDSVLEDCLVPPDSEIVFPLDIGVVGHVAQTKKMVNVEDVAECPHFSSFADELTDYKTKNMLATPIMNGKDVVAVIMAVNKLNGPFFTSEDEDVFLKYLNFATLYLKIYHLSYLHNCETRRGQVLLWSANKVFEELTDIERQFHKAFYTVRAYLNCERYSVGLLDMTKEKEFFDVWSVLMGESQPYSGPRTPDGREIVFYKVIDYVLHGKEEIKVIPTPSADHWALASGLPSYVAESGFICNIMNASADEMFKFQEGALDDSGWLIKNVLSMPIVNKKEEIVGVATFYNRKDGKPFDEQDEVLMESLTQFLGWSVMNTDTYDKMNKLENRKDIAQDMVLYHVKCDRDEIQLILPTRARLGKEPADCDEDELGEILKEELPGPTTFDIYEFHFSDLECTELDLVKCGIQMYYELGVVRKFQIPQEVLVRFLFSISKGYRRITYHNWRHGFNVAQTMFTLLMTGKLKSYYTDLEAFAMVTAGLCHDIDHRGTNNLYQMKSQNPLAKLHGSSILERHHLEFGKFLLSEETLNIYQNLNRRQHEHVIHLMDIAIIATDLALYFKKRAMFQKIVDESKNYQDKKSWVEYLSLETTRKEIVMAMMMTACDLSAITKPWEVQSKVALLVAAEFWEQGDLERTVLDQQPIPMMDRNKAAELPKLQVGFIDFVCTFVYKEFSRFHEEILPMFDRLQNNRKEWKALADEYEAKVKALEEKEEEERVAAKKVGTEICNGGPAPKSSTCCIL
Chain of PDE1B1 (Q01064 whole entry, species assumed): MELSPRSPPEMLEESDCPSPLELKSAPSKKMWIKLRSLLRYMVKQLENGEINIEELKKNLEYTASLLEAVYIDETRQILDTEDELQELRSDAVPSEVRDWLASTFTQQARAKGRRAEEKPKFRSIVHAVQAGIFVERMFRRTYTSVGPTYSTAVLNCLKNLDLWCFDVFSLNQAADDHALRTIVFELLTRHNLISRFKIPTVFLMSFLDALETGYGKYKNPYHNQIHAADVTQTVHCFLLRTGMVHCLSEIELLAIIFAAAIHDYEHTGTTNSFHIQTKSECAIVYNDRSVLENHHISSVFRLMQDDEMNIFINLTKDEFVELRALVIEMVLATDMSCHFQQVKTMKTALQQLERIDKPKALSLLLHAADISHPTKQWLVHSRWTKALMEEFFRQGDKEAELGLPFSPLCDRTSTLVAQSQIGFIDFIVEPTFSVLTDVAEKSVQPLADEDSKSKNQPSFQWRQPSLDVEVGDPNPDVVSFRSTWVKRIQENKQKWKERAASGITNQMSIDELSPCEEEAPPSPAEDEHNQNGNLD

`COCCc1ccc(-c2c(C)nc3c(N4CCOCC4)ccnn23)cn1` [compound 1, 3-[6-(2-methoxyethyl)-3-pyridinyl]-2-methyl-8-(4-morpholinyl)-imidazo[1,2-b]pyridazine]: the IC50 on PDE1B1 is 5.25 µM; in experiment [1], 85.1 µM; in experiment [2], 77.6 µM.

The record behind these values is patent publication US20120220581A1, “IMIDAZO[1,2-b]PYRIDAZINE DERIVATIVES AND THEIR USE AS PDE10 INHIBITORS” (Janssen-Cilag, S.A., priority 2009, published 2012).
